A value given as a limit tells only on which side of the number the result lay.

As usually defined, the IC50 is the concentration that gives 50% inhibition.

For the assay, the target named is T1, human TRPM8 (Homo sapiens, UniProt Q7Z2W7).
T1 construct: expressed in transfected cells; host or cells: HEK293
T1 sequence (Q7Z2W7 whole entry): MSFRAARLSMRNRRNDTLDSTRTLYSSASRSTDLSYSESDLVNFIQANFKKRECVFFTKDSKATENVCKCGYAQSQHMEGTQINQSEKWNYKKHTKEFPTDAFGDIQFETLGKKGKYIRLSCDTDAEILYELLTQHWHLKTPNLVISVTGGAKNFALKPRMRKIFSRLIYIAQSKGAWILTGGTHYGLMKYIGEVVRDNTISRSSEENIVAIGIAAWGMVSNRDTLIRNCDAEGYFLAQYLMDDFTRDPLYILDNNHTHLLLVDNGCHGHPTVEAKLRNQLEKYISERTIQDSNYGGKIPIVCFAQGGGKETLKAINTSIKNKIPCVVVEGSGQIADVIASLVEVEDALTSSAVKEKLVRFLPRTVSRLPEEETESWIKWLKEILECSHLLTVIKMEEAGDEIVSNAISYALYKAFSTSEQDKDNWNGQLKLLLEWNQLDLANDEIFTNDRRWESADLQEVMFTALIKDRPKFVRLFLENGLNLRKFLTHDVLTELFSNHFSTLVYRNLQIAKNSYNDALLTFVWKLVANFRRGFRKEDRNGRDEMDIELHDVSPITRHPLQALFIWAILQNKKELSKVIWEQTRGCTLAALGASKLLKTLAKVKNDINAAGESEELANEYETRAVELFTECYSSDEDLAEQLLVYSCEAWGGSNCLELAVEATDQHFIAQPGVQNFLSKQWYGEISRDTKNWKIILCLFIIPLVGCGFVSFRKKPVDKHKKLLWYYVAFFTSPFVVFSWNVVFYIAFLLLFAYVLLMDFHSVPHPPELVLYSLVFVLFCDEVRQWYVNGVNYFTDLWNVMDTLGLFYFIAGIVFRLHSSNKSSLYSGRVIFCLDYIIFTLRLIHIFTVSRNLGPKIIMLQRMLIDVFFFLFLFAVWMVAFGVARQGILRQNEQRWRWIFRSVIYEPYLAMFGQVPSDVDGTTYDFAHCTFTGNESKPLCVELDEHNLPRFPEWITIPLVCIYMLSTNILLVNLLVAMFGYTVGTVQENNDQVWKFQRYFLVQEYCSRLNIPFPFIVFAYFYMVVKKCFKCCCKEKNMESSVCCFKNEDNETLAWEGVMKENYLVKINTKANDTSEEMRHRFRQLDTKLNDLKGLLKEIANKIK
The experiment in a line: Menthol-induced Ca2+ influx in HEK293 cells stably expressing human TRPM8. It counts as cell-based. As to conditions: 30 microM menthol-induced Ca2+ influx, read-out: IC50 against TRPM8. The method in brief:
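IC50 values were fitted from 11-point dose-response data averaged over duplicate wells. Compound was added for 5 min to Fluo4-loaded HEK293 cells carrying stable human TRPM8, in HBSS/HEPES pH 7.4 with probenecid. Intracellular Ca2+ change after 30 microM menthol addition was then imaged on FDSS.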
Take `O=C1Cc2c(cccc2-c2ccc(C(=O)CN3C(=O)NC4(CCC(F)(F)CC4)C3=O)cc2)N1` [Example 13-44]: the IC50 is less than 100 nM.

`COc1ncccc1-c1ccc(C(=O)CN2C(=O)NC3(CCC(F)(F)CC3)C2=O)cc1` [Example 13-45]: the half-inhibitory concentration (IC50) was less than 100 nM. For `O=C(CN1C(=O)NC2(CCC(F)(F)CC2)C1=O)c1ccc(-c2cccc3cccnc23)cc1` [Example 13-46], the IC50 was less than 100 nM. The same measure for `O=C(CN1C(=O)NC2(CCC(F)(F)CC2)C1=O)c1ccc(-c2ccc3ccccc3n2)cc1` [Example 13-47]: less than 100 nM.

As for `O=C(CN1C(=O)NC2(CCC(F)(F)CC2)C1=O)c1ccc(-c2cccnc2)cc1` [Example 13-48], the IC50 was less than 100 nM.

Turning to `O=C(CN1C(=O)NC2(CCC(F)(F)CC2)C1=O)c1ccc(-c2ccccn2)cc1` [Example 13-49], the IC50 was less than 100 nM. The value for `O=C(CN1C(=O)NC2(CCC(F)(F)CC2)C1=O)c1ccc(-c2ccnc3c2OCCO3)cc1` [Example 13-50] was less than 500 nM.

Turning to `Cc1ccncc1-c1ccc(C(=O)CN2CC3(CCCCC3)OC2=O)cc1` [Example 13-51], the half-maximal inhibitory concentration (IC50) is less than 100 nM. The same measure for `Cc1ccncc1-c1ccc(C(=O)CN2CC3(CCC(F)(F)CC3)OC2=O)cc1` [Example 13-53]: less than 100 nM; for `O=C(CN1CC2(CCC(F)(F)CC2)OC1=O)c1ccc(-c2ccccc2CO)cc1` [Example 13-55]: less than 100 nM.

For the compound `Cc1ncccc1-c1ccc(C(=O)CN2CC3(CCC(F)(F)CC3)OC2=O)cc1` [Example 13-56], the IC50 is less than 500 nM. The value for `O=C(CN1CC2(CCC(F)(F)CC2)OC1=O)c1ccc(-c2cccc3cccnc23)cc1` [Example 13-57] was less than 500 nM; that for `N#Cc1cccc(-c2ccc(C(=O)CN3C(=O)NC4(CCC(F)(F)CC4)C3=O)cc2Cl)c1` [Example 13-68] was less than 500 nM; that for `O=C(CN1C(=O)NC2(CCC(F)(F)CC2)C1=O)c1cc2cc(-c3cccnc3)ccc2o1` [Example 13-69] was less than 500 nM.

With `Cc1ncccc1-c1ccc(C(=O)CN2C(=O)OC3(CCC(F)(F)CC3)C2=O)cc1` [Example 13-72], the IC50 is less than 100 nM. The same measure for `Cc1cc(C(=O)CN2C(=O)NC3(CCCCC3)C2=O)sc1-c1cccnc1` [Example 14-1]: less than 100 nM; for `Cc1cc(C(=O)CN2C(=O)NC3(CCCCC3)C2=O)sc1-c1ccccc1CO` [Example 14-2]: less than 100 nM; for `Cc1ccncc1-c1sc(C(=O)CN2C(=O)NC3(CCCCC3)C2=O)cc1C` [Example 14-3]: less than 100 nM. The same measure for `Cc1cc(C(=O)CN2C(=O)NC3(CCC(F)(F)CC3)C2=O)sc1-c1ccccc1CO` [Example 14-4]: less than 100 nM. As for `Cc1ccncc1-c1sc(C(=O)CN2C(=O)NC3(CCC(F)(F)CC3)C2=O)cc1C` [Example 14-5], the concentration for half-maximal inhibition (IC50) was less than 10 nM. The value for `Cc1cc(C(=O)CN2C(=O)NC3(CCC(F)(F)CC3)C2=O)sc1-c1cnccc1CO` [Example 14-6] was less than 100 nM.

Regarding `Cc1cc(C(=O)CN2C(=O)NC3(CCC(F)(F)CC3)C2=O)sc1-c1cccnc1` [Example 14-7], the 50% inhibitory concentration (IC50) is less than 100 nM. The same measure for `Cc1cc(C(=O)CN2C(=O)NC3(CCC(F)(F)CC3)C2=O)sc1-c1ccccc1C#N` [Example 14-8]: less than 100 nM; for `Cc1cc(C(=O)CN2C(=O)NC3(CCC(F)(F)CC3)C2=O)sc1-c1cccnc1C` [Example 14-9]: less than 100 nM.

For `Cc1cc(C(=O)CN2C(=O)NC3(CCC(F)(F)CC3)C2=O)sc1-c1cccc(C#N)c1` [Example 14-10], the 50% inhibitory concentration (IC50) was less than 100 nM. On to `Cc1ccccc1-c1sc(C(=O)CN2C(=O)NC3(CCC(F)(F)CC3)C2=O)cc1C` [Example 14-11], for which the IC50 was less than 100 nM.

Turning to `COc1ccccc1-c1sc(C(=O)CN2C(=O)NC3(CCC(F)(F)CC3)C2=O)cc1C` [Example 14-12], the IC50 was less than 100 nM. On to `Cc1cc(C(=O)CN2C(=O)NC3(CCC(F)(F)CC3)C2=O)sc1-c1cncc(C#N)c1` [Example 14-13], for which the half-inhibitory concentration (IC50) is less than 100 nM. The same measure for `Cc1cc(C(=O)CN2C(=O)NC3(CCC(F)(F)CC3)C2=O)sc1-c1ccccc1Cl` [Example 14-14]: less than 100 nM; for `Cc1cc(C(=O)CN2C(=O)NC3(CCC(F)(F)CC3)C2=O)sc1-c1cnccc1C(F)(F)F` [Example 14-15]: less than 100 nM. The value for `COc1ccncc1-c1sc(C(=O)CN2C(=O)NC3(CCC(F)(F)CC3)C2=O)cc1C` [Example 14-16] was less than 100 nM.

`Cc1cc(C(=O)CN2C(=O)NC3(CCC(F)(F)CC3)C2=O)sc1-c1cncc(F)c1` [Example 14-17]: the half-inhibitory concentration (IC50) was less than 100 nM. The same measure for `Cc1cc(C(=O)CN2C(=O)NC3(CCC(F)(F)CC3)C2=O)sc1-c1cccc(C(N)=O)c1` [Example 14-18]: less than 500 nM. The same measure for `Cc1cc(C(=O)CN2C(=O)NC3(CCC(F)(F)CC3)C2=O)sc1-c1cccnc1CO` [Example 14-19]: less than 500 nM; for `Cc1cc(C(=O)CN2C(=O)NC3(CCC(F)(F)CC3)C2=O)sc1-c1cccc2cccnc12` [Example 14-20]: less than 500 nM. With `Cc1cc(C(=O)CN2C(=O)NC3(CCC(F)(F)CC3)C2=O)sc1-c1cccc(CO)c1` [Example 14-21], the IC50 is less than 500 nM. For `Cc1sc(C(=O)CN2C(=O)NC3(CCC(F)(F)CC3)C2=O)c(C)c1-c1ccccc1C#N` [Example 15-1], the IC50 was less than 100 nM. On to `Cc1sc(C(=O)CN2C(=O)NC3(CCC(F)(F)CC3)C2=O)c(C)c1-c1cccnc1` [Example 15-2], for which the half-inhibitory concentration (IC50) is less than 100 nM. Turning to `Cc1sc(C(=O)CN2C(=O)NC3(CCC(F)(F)CC3)C2=O)c(C)c1-c1cccc(C#N)c1` [Example 15-3], the IC50 is less than 100 nM. The value for `Cc1ccncc1-c1c(C)sc(C(=O)CN2C(=O)NC3(CCC(F)(F)CC3)C2=O)c1C` [Example 15-4] was less than 100 nM. The same measure for `Cc1sc(C(=O)CN2C(=O)NC3(CCC(F)(F)CC3)C2=O)c(C)c1-c1cncnc1` [Example 15-5]: less than 100 nM; for `Cc1sc(C(=O)CN2C(=O)NC3(CCC(F)(F)CC3)C2=O)c(C)c1-c1cncc(F)c1` [Example 15-6]: less than 10 nM.

As for `Cc1sc(C(=O)CN2C(=O)NC3(CCC(F)(F)CC3)C2=O)c(C)c1-c1cccc(C(N)=O)c1` [Example 15-7], the concentration for half-maximal inhibition (IC50) is less than 100 nM. The same measure for `Cc1sc(C(=O)CN2C(=O)NC3(CCC(F)(F)CC3)C2=O)c(C)c1-c1ccccc1` [Example 15-8]: less than 500 nM; for `Cc1ccccc1-c1c(C)sc(C(=O)CN2C(=O)NC3(CCC(F)(F)CC3)C2=O)c1C` [Example 15-9]: less than 500 nM.

As to `Cc1sc(C(=O)CN2C(=O)NC3(CCC(F)(F)CC3)C2=O)c(C)c1-c1cncc(C(N)=O)c1` [Example 15-10], the concentration for half-maximal inhibition (IC50) is less than 500 nM. The value for `Cc1cccc(-c2c(C)sc(C(=O)CN3C(=O)NC4(CCC(F)(F)CC4)C3=O)c2C)c1` [Example 15-11] was less than 500 nM.

`Cc1sc(C(=O)CN2C(=O)NC3(CCC(F)(F)CC3)C2=O)c(C)c1-c1cccc(CO)c1` [Example 15-12]: the IC50 was less than 500 nM. The same measure for `Cn1c(C(=O)CN2C(=O)NC3(CCC(F)(F)CC3)C2=O)ccc1-c1cccc(C#N)c1` [Example 16-1]: less than 100 nM. The same measure for `Cc1ccncc1-c1ccc(C(=O)CN2C(=O)NC3(CCC(F)(F)CC3)C2=O)n1C` [Example 16-2]: less than 100 nM; for `Cn1c(C(=O)CN2C(=O)NC3(CCC(F)(F)CC3)C2=O)ccc1-c1cccnc1` [Example 16-3]: less than 100 nM.

Values taken from patent publication US10093678B2, “Azaspiro derivatives as TRPM8 antagonists” (RaQualia Pharma Inc., priority 2014, dated 2018).
